Patent US9360486B2, “Allergen fragments” (Biomay AG, priority 2007, dated 2016)

Test system: Amb a 1-specific T cell lines (TCL)
Experiment: T cell epitope mapping of Amb a 1.3: proliferation (3H-thymidine uptake) of TCL stimulated with synthetic peptides
Type: cell-based, human
Conditions: for T cell activating region recognized by % of patients: classes of prevalence referring to SI>5, 48 TCL; for No. positive patients SI > 3 / No. positive patients SI > 5 / % (positive patients SI > 3) / % (positive patients SI > 5): TCL from 48 ragweed pollen-allergic patients, peptide 5 μg/ml; for No. positive patients SI > 3 / No. positive patients SI > 5: 3H-thymidine uptake after 48 hrs; for No. positive patients SI > 3 / % (positive patients SI > 3): stimulation index > 3; for No. positive patients SI > 5 / % (positive patients SI > 5): stimulation index > 5
Description: The T cell response to Amb a 1 was characterized in detail using the established in vitro culture system (Jahn-Schmid et al., J. Immunol. 169: 6005-11, 2002; Jahn-Schmid et al., J. Allergy Clin. Immunol., 115: 399-404, 2005). In total, 85 clinically well-defined patients (75 from Vienna/10 from Milano) with typical case history, positive skin prick test and CAP/RAST tests for ragweed extract were included.
Peripheral blood mononuclear cells (PBMC) were isolated from heparinized blood of allergic patients by Ficoll density gradient centrifugation. To generate allergen-specific T cell lines (TCL) and T cell clones (TCC), 1.5×10^6 PBMC were stimulated with optimal doses of ragweed or mugwort extract (4 μg/ml) or rAmb a 1.3 (10 μg/ml) in 24-well flat-bottomed culture plates (Costar, USA). After 5 days human rIL-2 (10 U/ml, Boehringer, Mannheim, Germany) were added and cultures were continued for additional 7 days. Then, T cell blasts were isolated by density centrifugation. The majority of T cell blasts was further expanded with IL-2 and irradiated PBMC. A small number of T cell blasts were used to establish monoclonal T cell cultures by limiting dilution: 0.3 T cells/well were seeded into 96 well round bottom plates (Nunclone) in the presence of 2×10^5 irradiated (60 Gy) PBMC, 0.25% v/v PHA (Gibco, USA) and rIL-2 (4 U/well) in the medium mentioned above. After 14-21 days, growing microcultures were expanded at weekly intervals with irradiated PBMC and rIL-2. The specificity of TCC was assessed in proliferation assays using irradiated allogeneic or HLA-matched PBMC or irradiated EBV-transformed allogeneic B-cells and 5 μg/ml Amb a 1.3. After 48 hours, cellular uptake of tritiated (^3H)-thymidine was performed to measure proliferation in counts per minute (cpm). When the stimulation index (SI; ratio between cpm obtained in cultures containing TCC plus autologous APC plus antigen, and cpm obtained in cultures containing TCC and APC alone) was >10, responses were considered as positive. Allergen-specific TCC were expanded by alternating turns of stimulation with autologous irradiated APC and allergen or with allogeneic feeder cells and rIL-2.
Amb a 1-specific TCL and TCC were used to identify T cell epitopes of Amb a 1.3. T cell cultures were stimulated with a panel of 121 synthetic 12-mer peptides and one 13-mer representing the C-terminal peptide of Amb a 1.3 (Pepset, Biotrend, Germany). Peptides had been synthesized according to the Amb a 1.3 amino acid sequence and overlapped for 9 amino acid residues with the neighbouring peptides (Table 1). Peptides were used at a concentration of 5 μg/ml for stimulation and proliferation of T cell cultures was determined after 48 hrs by ^3H-thymidine-uptake. Because of the frequently observed high background caused by auto-reactivity in TCL, the mean of the cpm observed with the ten least stimulating peptides (none of the peptides was toxic) was used as negative control in calculations of SI. Throughout this manuscript, a peptide comprised one T cell epitope when the stimulation index was at least 3.0.
T cell epitope mapping of Amb a 1.3 was performed evaluating 48 TCL from different patients ([…]), which had been initiated with ragweed extract (containing the natural allergen) or rAmb a 1.3 (Table 2). TCL induced with either ragweed extract or rAmb a 1.3 from the same individual recognized similar T cell epitopes (Table 2; FIG. 7). […] Therefore, their data were combined for further analysis (Table 3). Typical for many inhalant allergens, multiple T cell activating regions were detected in Amb a 1.3. The number of peptides recognized by T cells from a single individual ranged from 2 to maximum 60 peptides with a mean of 17.8 peptides (median=16/for SI>3; resp. 0-36/11.9/12 for SI>5) (see Table 3). In total, 26 relevant (i.e. recognized by ≧10% of patients studied) T cell activating regions comprising 12-18 aa were identified. […]

| Sequence | reactivity with T cells isolated from allergic individuals | T cell activating region recognized by % of patients | No. positive patients SI > 3 | No. positive patients SI > 5 | % (positive patients SI > 3) [%] | % (positive patients SI > 5) [%] | T cell reactivity with samples from individuals suffering from ragweed pollen allergy |
| --- | --- | --- | --- | --- | --- | --- | --- |
| GEAAIKLTSSAGVLSCRP (Amb a 1 fragment) [Peptide 118-120] | reactivity with T cells | recognized by 20.8% | – | – | – | – | – |
| GKWGDVYTVTSN (Amb a 1 fragment) [Peptide 20] | reactivity with T cells | recognized by 14.6% | 9 | 7 | 18.8 | 14.6 | – |
| GMIKSNDGPPIL (Amb a 1 fragment) [Peptide 52] | reactivity with T cells | recognized by 56.3% | 31 | 27 | 64.6 | 56.3 | high T cell reactivity |
| GNRFLAPDDQIK (Amb a 1 fragment) [Peptide 96] | reactivity with T cells | – | 5 | 4 | 10.4 | 8.3 | – |
| GRGVKVEIINGG (Amb a 1 fragment) [Peptide 40] | – | – | 3 | 4 | 6.3 | 8.3 | – |
| GSSQIWIDHCSL (Amb a 1 fragment) [Peptide 60] | reactivity with T cells | – | 30 | 28 | 62.5 | 58.3 | – |
| GSSQIWIDHCSLSKS (Amb a 1 fragment) [Peptide 60-61] | reactivity with T cells | – | – | – | – | – | – |
| GSTHVTISNCKF (Amb a 1 fragment) [Peptide 68] | reactivity with T cells | recognized by 33.3% | 20 | 16 | 41.7 | 33.3 | high T cell reactivity |
| GVGEILPSVNET (Amb a 1 fragment) [Peptide 2] | – | – | 2 | 1 | 4.2 | 2.1 | – |
| HVTISNCKFTQQ (Amb a 1 fragment) [Peptide 69] | reactivity with T cells | – | 8 | 4 | 16.7 | 8.3 | – |
| IDHCSLSKSFDG (Amb a 1 fragment) [Peptide 62] | – | – | 3 | 2 | 6.3 | 4.2 | – |
| IFVTSGSDPVLT (Amb a 1 fragment) [Peptide 110] | reactivity with T cells | – | 13 | 11 | 27.1 | 22.9 | – |
| IGGSSAPTILCQ (Amb a 1 fragment) [Peptide 92] | – | – | 3 | 2 | 6.3 | 4.2 | – |
| IHDVKVLPGGMI (Amb a 1 fragment) [Peptide 49] | – | – | 3 | 2 | 6.3 | 4.2 | – |
| IIFKNDMVINLN (Amb a 1 fragment) [Peptide 32] | – | – | 2 | 1 | 4.2 | 2.1 | – |
| IIHNINIHDVKV (Amb a 1 fragment) [Peptide 47] | reactivity with T cells | – | 14 | 10 | 29.2 | 20.8 | – |
| ILLGADDTHVQD (Amb a 1 fragment) [Peptide 74] | – | – | 3 | 1 | 6.3 | 2.1 | – |
| ISNCKFTQQSKA (Amb a 1 fragment) [Peptide 70] | – | – | 1 | 1 | 2.1 | 2.1 | – |
| KADWENNRQALA (Amb a 1 fragment) [Peptide 12] | reactivity with T cells | – | 5 | 1 | 10.4 | 2.1 | – |
| KGMLATVAFNMF (Amb a 1 fragment) [Peptide 78] | reactivity with T cells | recognized by 12.5% | 11 | 6 | 22.9 | 12.5 | – |
| KNDMVINLNQEL (Amb a 1 fragment) [Peptide 33] | reactivity with T cells | – | 15 | 13 | 31.3 | 27.1 | – |
| KNDMVINLNQELVVN (Amb a 1 fragment) [Peptide 33-34] | reactivity with T cells | recognized by 27.1% | – | – | – | – | – |
| KNIIIHNINIHD (Amb a 1 fragment) [Peptide 46] | reactivity with T cells | – | 10 | 8 | 20.8 | 16.7 | – |
| KNIIIHNINIHDVKVLPG (Amb a 1 fragment) [Peptide 46-48] | reactivity with T cells | recognized by 20.8% | – | – | – | – | – |
| KNVLARTGTGAA (Amb a 1 fragment) [Peptide 100] | reactivity with T cells | recognized by 10.4% | 6 | 5 | 12.5 | 10.4 | – |
| KSNDGPPILRQA (Amb a 1 fragment) [Peptide 53] | reactivity with T cells | – | 5 | 0 | 10.4 | 0.0 | – |
| LARTGTGAAESM (Amb a 1 fragment) [Peptide 101] | reactivity with T cells | – | 10 | 7 | 20.8 | 14.6 | – |
| LARTGTGAAESMAWN (Amb a 1 fragment) [101/102] | reactivity with T cells | recognized by 14.6% | – | – | – | – | – |
